For this assay, the system named is CD2F1 mice, L1210 leukemia ip, survival T/C. The experiment in a line: NCI In Vivo Anticancer Drug Screen. Data for tumor model L1210 Leukemia (intraperitoneal) in CD2F1 (CDF1) mice. The settings on record: higher = longer survival. An outline of the steps:
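Tumor-bearing mice (transplanted tumor) were split into treated and vehicle control groups, and the measured endpoint of each treated group was divided by that of its vehicle controls.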

Setting [1] is: endpoint: mean survival time, dose: 100.0 mg/kg/injection, schedule: Q01DX001 (ip), vehicle: saline.
The mark [2] stands for this setting: endpoint: mean survival time, dose: 200.0 mg/kg/injection, schedule: Q01DX001 (ip), vehicle: saline.
Setting [3] is: endpoint: mean survival time, dose: 400.0 mg/kg/injection, schedule: Q01DX001 (ip), vehicle: saline.
The mark [4] stands for this setting: endpoint: mean survival time, dose: 100.0 mg/kg/injection, schedule: Q04DX003 (ip), vehicle: saline with Tween-80.
Where [5] appears, read: endpoint: mean survival time, dose: 200.0 mg/kg/injection, schedule: Q04DX003 (ip), vehicle: saline with Tween-80.
Setting [6] is: endpoint: mean survival time, dose: 100.0 mg/kg/injection, schedule: Q01DX009 (ip), vehicle: saline with Tween-80.
The mark [7] stands for this setting: endpoint: mean survival time, dose: 200.0 mg/kg/injection, schedule: Q01DX009 (ip), vehicle: saline with Tween-80.
The mark [8] stands for this setting: endpoint: mean survival time, dose: 400.0 mg/kg/injection, schedule: Q01DX009 (ip), vehicle: saline with Tween-80.
Where [9] appears, read: endpoint: mean survival time, dose: 50.0 mg/kg/injection, schedule: Q01DX009 (ip), vehicle: saline with Tween-80.

Values joined by “and” are separate entries in the source; they are usually repeats but may differ in a detail not shown here. Equal entries are not always repeated. Toxic doses and inconclusive results are not listed.

In the case of `COC1(O)C(=O)c2ccccc2OC1(OC)c1ccc(C)cc1` (centres undefined), the T/C is 102 % of control (endpoint: mean survival time, dose: 50.0 mg/kg/injection, schedule: Q01DX001 (ip), vehicle: saline); 98 % of control under setting [1]; 96 % of control under setting [2]; 98 % of control under setting [3].
Turning to `CCC(C)OC(=O)CCl` (centres undefined), the T/C is 97 % of control (endpoint: mean survival time, dose: 75.0 mg/kg/injection, schedule: Q01DX001 (ip), vehicle: other) and 96 % of control (endpoint: mean survival time, dose: 150.0 mg/kg/injection, schedule: Q01DX001 (ip), vehicle: other).
As to `COc1ccc(C(=O)c2ncccc2C)cc1OC`, the T/C runs as follows: (endpoint: mean survival time, dose: 12.5 mg/kg/injection, schedule: Q01DX009 (ip), vehicle: water) 94 % of control; (endpoint: mean survival time, dose: 25.0 mg/kg/injection, schedule: Q01DX009 (ip), vehicle: water) 95 % of control; (endpoint: mean survival time, dose: 50.0 mg/kg/injection, schedule: Q01DX009 (ip), vehicle: water) 94 % of control; (endpoint: mean survival time, dose: 100.0 mg/kg/injection, schedule: Q01DX009 (ip), vehicle: water) 94 % of control; (endpoint: mean survival time, dose: 200.0 mg/kg/injection, schedule: Q01DX009 (ip), vehicle: water) 88 % of control.
Turning to `CN1CCCN(C)C1c1cc([N+](=O)[O-])ccc1O`, the T/C is, setting by setting: (endpoint: mean survival time, dose: 6.25 mg/kg/injection, schedule: Q01DX009 (ip), vehicle: saline sonified) 100 % of control; (endpoint: mean survival time, dose: 6.25 mg/kg/injection, schedule: Q04DX003 (ip), vehicle: saline sonified) 106 % of control; (endpoint: mean survival time, dose: 12.5 mg/kg/injection, schedule: Q01DX009 (ip), vehicle: saline sonified) 98 % of control; (endpoint: mean survival time, dose: 12.5 mg/kg/injection, schedule: Q04DX003 (ip), vehicle: saline sonified) 101 % of control; (endpoint: mean survival time, dose: 25.0 mg/kg/injection, schedule: Q01DX009 (ip), vehicle: saline sonified) 89 % of control; (endpoint: mean survival time, dose: 25.0 mg/kg/injection, schedule: Q04DX003 (ip), vehicle: saline sonified) 98 % of control.
On to `NCc1cnc(N)nc1N`, for which the T/C under setting [4] was 98 % of control and the T/C under setting [5] is 102 % of control.
Take `CC1=CC(S)NC(=S)N1` (centres undefined): the T/C is, setting by setting: (endpoint: mean survival time, dose: 100.0 mg/kg/injection, schedule: Q04DX002 (ip), vehicle: saline with Tween-80) 103 % of control; (endpoint: mean survival time, dose: 200.0 mg/kg/injection, schedule: Q04DX002 (ip), vehicle: saline with Tween-80) 95 % of control; (endpoint: mean survival time, dose: 400.0 mg/kg/injection, schedule: Q04DX002 (ip), vehicle: saline with Tween-80) 106 % of control.
Take `O=c1[nH]c2c(c(=O)n1-c1ccccc1)CCCS2`: the T/C reads like this: under setting [1], 103 % of control; under setting [2], 104 % of control; under setting [3], 103 % of control.
For the compound `CN(C)CCC[n+]1cc2c3ccccc3c(N)cc2c2ccccc21`, the T/C (endpoint: mean survival time, dose: 3.13 mg/kg/injection, schedule: Q04DX003 (ip), vehicle: water) is 103 % of control; the T/C (endpoint: mean survival time, dose: 6.25 mg/kg/injection, schedule: Q04DX003 (ip), vehicle: water) is 106 % of control; the T/C (endpoint: mean survival time, dose: 12.5 mg/kg/injection, schedule: Q04DX003 (ip), vehicle: water) is 103 % of control; the T/C (endpoint: mean survival time, dose: 25.0 mg/kg/injection, schedule: Q04DX003 (ip), vehicle: water) was 109 % of control; the T/C (endpoint: mean survival time, dose: 50.0 mg/kg/injection, schedule: Q04DX003 (ip), vehicle: water) is 109 % of control.
`O=C1C(Br)=CC(Br)(Br)C=C1Br`: the T/C under setting [6] is 88 % of control, the T/C under setting [7] was 91 % of control and the T/C under setting [8] is 86 % of control.
As for `C/C(=C\Cl)COC(C)(C)C`, the T/C under setting [9] is 98 % of control; the T/C under setting [6] is 93 % of control; the T/C (endpoint: mean survival time, dose: 100.0 mg/kg/injection, schedule: Q04DX003 (ip), vehicle: acetone) is 101 % of control; the T/C under setting [7] is 98 % of control; the T/C (endpoint: mean survival time, dose: 200.0 mg/kg/injection, schedule: Q04DX003 (ip), vehicle: acetone) was 93 % of control.
As to `Cc1cc(O)c(O)c(C(C)(C)CC(C)(C)C)c1`, the T/C is 100 % of control (endpoint: mean survival time, dose: 12.5 mg/kg/injection, schedule: Q01DX009 (ip), vehicle: saline + alcohol); 97 % of control (endpoint: mean survival time, dose: 25.0 mg/kg/injection, schedule: Q01DX009 (ip), vehicle: saline + alcohol); 103 % of control (endpoint: mean survival time, dose: 50.0 mg/kg/injection, schedule: Q01DX009 (ip), vehicle: saline + alcohol); 105 % of control (endpoint: mean survival time, dose: 100.0 mg/kg/injection, schedule: Q04DX003 (ip), vehicle: saline + alcohol); 103 % of control (endpoint: mean survival time, dose: 200.0 mg/kg/injection, schedule: Q04DX003 (ip), vehicle: saline + alcohol); 100 % of control (endpoint: mean survival time, dose: 400.0 mg/kg/injection, schedule: Q04DX003 (ip), vehicle: saline + alcohol).
On to `O=C1NC(=O)C(Br)C(=O)N1`, for which the T/C (endpoint: mean survival time, dose: 75.0 mg/kg/injection, schedule: Q01DX001 (ip), vehicle: saline) is 102 % of control and the T/C (endpoint: mean survival time, dose: 150.0 mg/kg/injection, schedule: Q01DX001 (ip), vehicle: saline) was 100 % of control.
Consider `NC(=S)NNc1ccccn1`, for which the T/C is, setting by setting: (endpoint: mean survival time, dose: 25.0 mg/kg/injection, schedule: Q04DX002 (ip), vehicle: saline) 106 % of control; (endpoint: mean survival time, dose: 50.0 mg/kg/injection, schedule: Q04DX002 (ip), vehicle: saline) 108 % of control.
As for `O=C(CCOP(=O)(NCCCl)NCCCl)c1ccccc1`, the T/C is 117 % of control (endpoint: median survival time, dose: 62.5 mg/kg/injection, schedule: Q01DX001 (ip), vehicle: saline with Tween-80); 166 % of control (endpoint: median survival time, dose: 125.0 mg/kg/injection, schedule: Q01DX001 (ip), vehicle: saline with Tween-80); 165 % of control and 229 % of control (endpoint: median survival time, dose: 250.0 mg/kg/injection, schedule: Q01DX001 (ip), vehicle: saline with Tween-80); 291 % of control (endpoint: median survival time, dose: 500.0 mg/kg/injection, schedule: Q01DX001 (ip), vehicle: saline with Tween-80).
For the compound `O=NN1CCOC1=NCCCl`, the T/C reads like this: (endpoint: mean survival time, dose: 3.12 mg/kg/injection, schedule: Q01DX001 (ip), vehicle: water) 100 % of control; (endpoint: mean survival time, dose: 6.25 mg/kg/injection, schedule: Q01DX001 (ip), vehicle: water) 96 % of control; (endpoint: mean survival time, dose: 12.5 mg/kg/injection, schedule: Q01DX001 (ip), vehicle: water) 94 % of control; (endpoint: mean survival time, dose: 25.0 mg/kg/injection, schedule: Q01DX001 (ip), vehicle: water) 96 % of control; (endpoint: mean survival time, dose: 50.0 mg/kg/injection, schedule: Q01DX001 (ip), vehicle: water) 96 % of control; (endpoint: mean survival time, dose: 100.0 mg/kg/injection, schedule: Q01DX001 (ip), vehicle: water) 102 % of control. Moreover, the T/C (endpoint: mean survival time, dose: 200.0 mg/kg/injection, schedule: Q01DX001 (ip), vehicle: water) is 122 % of control.
Regarding `C=C(Cl)CNC(N)=S`, the T/C reads like this: under setting [4], 99 % of control; under setting [5], 98 % of control.
With `Cc1ccc(S(=O)(=O)OCC(C)C)cc1`, the T/C by setting is: under setting [6], 101 % of control; under setting [7], 101 % of control; under setting [8], 98 % of control.
On to `O=C(O)c1ccccc1C(c1ccccc1)c1ccccc1`, for which the T/C under setting [9] is 94 % of control and the T/C under setting [6] is 94 % of control.
In the case of `O=CN(Cc1ccccc1)c1cc([N+](=O)[O-])ccc1OCc1ccccc1`, the T/C runs as follows: under setting [1], 96 % of control; under setting [2], 94 % of control; under setting [3], 100 % of control.
As to `COc1cc2ccc(C=O)cc2cc1OC`, the T/C is, setting by setting: (endpoint: mean survival time, dose: 12.5 mg/kg/injection, schedule: Q01DX009 (ip), vehicle: Klucel (hydroxypropylcellulose) (HPC)) 97 % of control; (endpoint: mean survival time, dose: 25.0 mg/kg/injection, schedule: Q01DX009 (ip), vehicle: Klucel (hydroxypropylcellulose) (HPC)) 94 % of control; (endpoint: mean survival time, dose: 50.0 mg/kg/injection, schedule: Q01DX009 (ip), vehicle: Klucel (hydroxypropylcellulose) (HPC)) 92 % of control; (endpoint: mean survival time, dose: 100.0 mg/kg/injection, schedule: Q01DX009 (ip), vehicle: Klucel (hydroxypropylcellulose) (HPC)) 86 % of control; (endpoint: mean survival time, dose: 200.0 mg/kg/injection, schedule: Q01DX009 (ip), vehicle: Klucel (hydroxypropylcellulose) (HPC)) 86 % of control; (endpoint: mean survival time, dose: 400.0 mg/kg/injection, schedule: Q01DX009 (ip), vehicle: Klucel (hydroxypropylcellulose) (HPC)) 90 % of control.
In the case of `CCC/C(C)=N/Nc1ccc([N+](=O)[O-])cc1`, the T/C runs as follows: under setting [6], 94 % of control; under setting [4], 95 % of control; under setting [7], 100 % of control; under setting [5], 97 % of control; under setting [8], 94 % of control; (endpoint: mean survival time, dose: 400.0 mg/kg/injection, schedule: Q04DX003 (ip), vehicle: saline with Tween-80) 93 % of control.
As to `N#CC(NC(=O)NCCO)c1ccccc1` (centres undefined), the T/C was 94 % of control under setting [6], 96 % of control under setting [7] and 92 % of control under setting [8].

The record behind these values is PubChem BioAssay AID256 (DTP/NCI, 2004).
